In ChEMBL document CHEMBL1154418 (2007):
Converted amounts (≈) assume the structure as drawn. The source made the active and inactive calls. The calls are words filed in the database; no cut-off is given here.

What was measured:
Escherichia coli [1] = assay: Antibacterial activity against tetracycline-resistant Escherichia coli clinical isolates expressing tet(B), tet(D), tet(E) gene by broth microdilution method; format: functional, organism-based
Escherichia coli [2] = assay: Antibacterial activity against tetracycline-resistant Escherichia coli clinical isolates expressing tet(A), tet(B), tet(D), tet(E) gene by broth microdilution method; format: functional, organism-based
Escherichia coli [3] = assay: Antibacterial activity against tetracycline-resistant Escherichia coli clinical isolates by broth microdilution method; format: functional
Escherichia coli [4] = assay: Antibacterial activity against tetracycline-resistant Escherichia coli clinical isolates without tet(B) gene by broth microdilution method; format: functional
Escherichia coli [5] = assay: Antibacterial activity against tetracycline-resistant Escherichia coli with single drug resistance determinant isolates by broth microdilution method; format: functional
Escherichia coli [6] = assay: Antibacterial activity against tetracycline-resistant Escherichia coli with multiple drug resistance determinant isolates by broth microdilution method; format: functional
Escherichia coli [7] = assay: Antibacterial activity against tetracycline-susceptible Escherichia coli clinical isolates by broth microdilution method; format: functional
Escherichia coli [8] = assay: Antibacterial activity against Escherichia coli ATCC 25922 by broth microdilution method; format: functional, organism-based
Escherichia coli [9] = assay: Antibacterial activity against tetracycline-resistant Escherichia coli clinical isolates expressing tet(A), tet(B), tet(D) gene by broth microdilution method; format: functional, organism-based
Escherichia coli [10] = assay: Antibacterial activity against tetracycline-resistant Escherichia coli clinical isolates expressing tet(A), tet(B) gene by broth microdilution method; format: functional
Escherichia coli [11] = assay: Antibacterial activity against tetracycline-resistant Escherichia coli clinical isolates expressing tet(A) gene by broth microdilution method; format: functional
Escherichia coli [12] = assay: Antibacterial activity against tetracycline-resistant Escherichia coli clinical isolates expressing tet(B) gene by broth microdilution method; format: functional
Escherichia coli [13] = assay: Antibacterial activity against tetracycline-resistant Escherichia coli clinical isolates expressing tet(C) gene by broth microdilution method; format: functional, organism-based
Escherichia coli [14] = assay: Antibacterial activity against tetracycline-resistant Escherichia coli clinical isolates expressing tet(D) gene by broth microdilution method; format: functional
Escherichia coli [15] = assay: Antibacterial activity against tetracycline-resistant Escherichia coli clinical isolates expressing tet(E) gene by broth microdilution method; format: functional, organism-based
Escherichia coli [16] = assay: Antibacterial activity against tetracycline-resistant Escherichia coli clinical isolates expressing tet(M) gene by broth microdilution method; format: functional, organism-based
Escherichia coli [17] = assay: Antibacterial activity against tetracycline-resistant Escherichia coli clinical isolates expressing tet(A), tet(D) gene by broth microdilution method; format: functional
Escherichia coli [18] = assay: Antibacterial activity against tetracycline-resistant Escherichia coli clinical isolates expressing tet(A), tet(E) gene by broth microdilution method; format: functional, organism-based
Escherichia coli [19] = assay: Antibacterial activity against tetracycline-resistant Escherichia coli clinical isolates expressing tet(A), tet(M) gene by broth microdilution method; format: functional, organism-based
Escherichia coli [20] = assay: Antibacterial activity against tetracycline-resistant Escherichia coli clinical isolates expressing tet(B), tet(C) gene by broth microdilution method; format: functional, organism-based
Escherichia coli [21] = assay: Antibacterial activity against tetracycline-resistant Escherichia coli clinical isolates expressing tet(B), tet(D) gene by broth microdilution method; format: functional
Escherichia coli [22] = assay: Antibacterial activity against tetracycline-resistant Escherichia coli clinical isolates expressing tet(B), tet(E) gene by broth microdilution method; format: functional
Escherichia coli [23] = assay: Antibacterial activity against tetracycline-resistant Escherichia coli clinical isolates expressing tet(C), tet(E) gene by broth microdilution method; format: functional, organism-based
Escherichia coli [24] = assay: Antibacterial activity against tetracycline-resistant Escherichia coli clinical isolates expressing tet(D), tet(E) gene by broth microdilution method; format: functional, organism-based

Row | Compound | Activity (Escherichia coli [1]) | Activity (Escherichia coli [2]) | MIC50 (Escherichia coli [3]) | MIC90 (Escherichia coli [3]) | MIC50 (Escherichia coli [4]) | MIC90 (Escherichia coli [4]) | MIC50 (Escherichia coli [5]) | MIC90 (Escherichia coli [5]) | MIC50 (Escherichia coli [6]) | MIC90 (Escherichia coli [6]) | MIC90 (Escherichia coli [7]) | Activity (Escherichia coli [9]) | MIC50 (Escherichia coli [10]) | MIC90 (Escherichia coli [10]) | MIC50 (Escherichia coli [11]) | MIC90 (Escherichia coli [11]) | MIC50 (Escherichia coli [12]) | MIC90 (Escherichia coli [12]) | Activity (Escherichia coli [13]) | MIC50 (Escherichia coli [14]) | further results
1 | CN(C)c1ccc(O)c2c1C[C@H]1C[C@H]3[C@H](N(C)C)C(O)=C(C(N)=O)C(=O)[C@@]3(O)C(O)=C1C2=O [MINOCYCLINE] | inactive | inactive | 4 mg/L (≈ 8.74 µM) | 8 mg/L (≈ 17.5 µM) | 4 mg/L (≈ 8.74 µM) | 8 mg/L (≈ 17.5 µM) | 8 mg/L (≈ 17.5 µM) | 32 mg/L (≈ 69.9 µM) | 8 mg/L (≈ 17.5 µM) | 32 mg/L (≈ 69.9 µM) | 2 mg/L (≈ 4.37 µM) | inactive | 16 mg/L (≈ 35 µM) | 32 mg/L (≈ 69.9 µM) | 2 mg/L (≈ 4.37 µM) | 4 mg/L (≈ 8.74 µM) | 16 mg/L (≈ 35 µM) | 32 mg/L (≈ 69.9 µM) | inactive | 8 mg/L (≈ 17.5 µM) | MIC50 (Escherichia coli [7]): 1 mg/L (≈ 2.19 µM); Activity (Escherichia coli [8]): inactive; MIC90 (Escherichia coli [14]): 8 mg/L (≈ 17.5 µM); Activity (Escherichia coli [15]): inactive; Activity (Escherichia coli [16]): inactive; MIC50 (Escherichia coli [17]): 4 mg/L (≈ 8.74 µM); MIC90 (Escherichia coli [17]): 16 mg/L (≈ 35 µM); Activity (Escherichia coli [18]): inactive; Activity (Escherichia coli [19]): inactive; Activity (Escherichia coli [20]): inactive; MIC50 (Escherichia coli [21]): 16 mg/L (≈ 35 µM); MIC90 (Escherichia coli [21]): 64 mg/L (≈ 140 µM); MIC50 (Escherichia coli [22]): 8 mg/L (≈ 17.5 µM); MIC90 (Escherichia coli [22]): 32 mg/L (≈ 69.9 µM); Activity (Escherichia coli [23]): inactive; Activity (Escherichia coli [24]): inactive
2 | CN(C)[C@@H]1C(O)=C(C(N)=O)C(=O)[C@@]2(O)C(O)=C3C(=O)c4c(O)cccc4[C@@](C)(O)[C@H]3C[C@@H]12 [TETRACYCLINE] | inactive | inactive | > 64 mg/L | > 64 mg/L | > 64 mg/L | > 64 mg/L | > 64 mg/L | > 64 mg/L | > 64 mg/L | > 64 mg/L | 4 mg/L (≈ 9 µM) | inactive | > 64 mg/L | > 64 mg/L | > 64 mg/L | 64 mg/L (≈ 144 µM) | > 64 mg/L | > 64 mg/L | inactive | > 64 mg/L | MIC90 (Escherichia coli [14]): > 64 mg/L; Activity (Escherichia coli [15]): inactive; Activity (Escherichia coli [16]): inactive; MIC50 (Escherichia coli [17]): > 64 mg/L; MIC90 (Escherichia coli [17]): > 64 mg/L; Activity (Escherichia coli [18]): inactive; Activity (Escherichia coli [19]): inactive; Activity (Escherichia coli [20]): inactive; MIC50 (Escherichia coli [21]): > 64 mg/L; MIC90 (Escherichia coli [21]): > 64 mg/L; MIC50 (Escherichia coli [22]): > 64 mg/L; MIC90 (Escherichia coli [22]): > 64 mg/L; Activity (Escherichia coli [23]): inactive; Activity (Escherichia coli [24]): inactive
3 | CN(C)c1cc(NC(=O)CNC(C)(C)C)c(O)c2c1C[C@H]1C[C@H]3[C@H](N(C)C)C(O)=C(C(N)=O)C(=O)[C@@]3(O)C(O)=C1C2=O [TIGECYCLINE] | inactive | inactive | 0.5 mg/L (≈ 0.854 µM) | 1 mg/L (≈ 1.71 µM) | 0.5 mg/L (≈ 0.854 µM) | 0.5 mg/L (≈ 0.854 µM) | 0.25 mg/L (≈ 0.427 µM) | 0.5 mg/L (≈ 0.854 µM) | 0.25 mg/L (≈ 0.427 µM) | 0.5 mg/L (≈ 0.854 µM) | 0.5 mg/L (≈ 0.854 µM) | inactive | 0.25 mg/L (≈ 0.427 µM) | 0.5 mg/L (≈ 0.854 µM) | 0.5 mg/L (≈ 0.854 µM) | 0.5 mg/L (≈ 0.854 µM) | 0.25 mg/L (≈ 0.427 µM) | 0.5 mg/L (≈ 0.854 µM) | inactive | 0.25 mg/L (≈ 0.427 µM) | MIC50 (Escherichia coli [7]): 0.25 mg/L (≈ 0.427 µM); Activity (Escherichia coli [8]): inactive; MIC90 (Escherichia coli [14]): 0.5 mg/L (≈ 0.854 µM); Activity (Escherichia coli [15]): inactive; Activity (Escherichia coli [16]): inactive; MIC50 (Escherichia coli [17]): 0.5 mg/L (≈ 0.854 µM); MIC90 (Escherichia coli [17]): 1 mg/L (≈ 1.71 µM); Activity (Escherichia coli [18]): inactive; Activity (Escherichia coli [19]): inactive; Activity (Escherichia coli [20]): inactive; MIC50 (Escherichia coli [21]): 0.25 mg/L (≈ 0.427 µM); MIC90 (Escherichia coli [21]): 0.5 mg/L (≈ 0.854 µM); MIC50 (Escherichia coli [22]): 0.25 mg/L (≈ 0.427 µM); MIC90 (Escherichia coli [22]): 0.25 mg/L (≈ 0.427 µM); Activity (Escherichia coli [23]): inactive; Activity (Escherichia coli [24]): inactive
